Results as given in patent publication US8361988B2, “Nucleoside and nucleotide analogues with quaternary carbon centers and methods of use” (Institut de Recherches Cliniques de Montreal, priority 2007, dated 2013).

Assays:
in vitro [1] = conditions: human, NCI H2052 cells
[2] = MTT cell proliferation assay, ZR-75-1; format: cell-based; conditions: human, ZR-75-1 cells, concentration causing 50% cell death of initial cell count over 24 hours, 1% DMSO
Method: (§1) The antitumor activities of the compounds of the invention were evaluated by a cellular proliferation assay. The MTT [3-(4,5-dimethylthiazol-2-yl)-2,5-diphenyltetrazolium bromide] cell proliferation assay, first described by Mosmann (Mosmann T., “Rapid colorimetric assay for cellular growth and survival: application to proliferation and cytotoxicity assays,” J. Immunol. Methods 1983 Dec. 16; 65(1-2):55-63, and incorporated by reference in its entirety) is based on the ability of active mitochondrial reductase enzymes from viable cells to cleave the tetrazolium rings of the pale yellow MTT. The cleavage reaction form a purple formazan crystals which is largely impermeable to cell membranes resulting in its accumulation within healthy cells. Solubilisation of the cells by addition of a detergent liberates and solubilizes the formazan crystals. The number of surviving cells is directly proportional to the level of the formazan product created. The color can then be quantified spectrophotometrically. The production of purple formazan in cells treated with a compound is measured relative to the production in control cells, and dose-response curves can be generated. This assay measures the cell proliferation rate and conversely, when metabolic events lead to apoptosis or necrosis, the reduction in cell viability, thus also allowing the evaluation of the cytotoxicity of the analogues synthesized in the laboratory.
(§2) For Tables 3 and 4, the assays were performed with 1% DMSO. The abbreviation “n.d.” means “not determined.” The values EC50, CC50, and SI have the following definitions.
(§3) Cell growth equals total cell count without any inhibitor after 72 hours minus initial cell count. Total cell counts after 72 hrs of growth range from 230 to 346% of initial cell counts depending on the cell line.
(§4) Total cell counts after 24 hrs of growth range from 103 to 109% of initial cell counts depending on the cell line.
(§5) SI: Selectivity Index is the ratio CC50/EC50.

ZR-75-1 = test: MTT cell proliferation assay, ZR-75-1; format: cell-based; conditions: Homo sapiens, ZR-75-1, 72 h, concentration reducing cell growth by 50% after 72 hours, 1% DMSO
Method: as §1, §2, §3, §4, §5

in vitro [3] = conditions: human, NCI H1395 cells
[4] = MTT cell proliferation assay, PFSK-1; format: cell-based; conditions: human, PFSK-1 cells, concentration causing 50% cell death of initial cell count over 24 hours, 1% DMSO
Method: (§6) The antitumor activities of the compounds of the invention were evaluated by a cellular proliferation assay. […] The cleavage reaction form a purple formazan crystals which is largely impermeable to cell membranes resulting in its accumulation within healthy cells. Solubilisation of the cells by addition of a detergent liberates and solubilizes the formazan crystals. The number of surviving cells is directly proportional to the level of the formazan product created. The color can then be quantified spectrophotometrically. The production of purple formazan in cells treated with a compound is measured relative to the production in control cells, and dose-response curves can be generated. This assay measures the cell proliferation rate and conversely, when metabolic events lead to apoptosis or necrosis, the reduction in cell viability, thus also allowing the evaluation of the cytotoxicity of the analogues synthesized in the laboratory.
as §2
(§7) Cell growth equals total cell count without any inhibitor after 72 hours minus initial cell count.
as §5

PFSK-1 = test: MTT cell proliferation assay, PFSK-1; format: cell-based; conditions: Homo sapiens, PFSK-1, 72 h, concentration reducing cell growth by 50% after 72 hours, 1% DMSO
Method: as §6, §2, §7, §5

[5] = biological target: T1, Drosophila melanogaster dNK (Drosophila melanogaster, UniProt Q9XZT6); test: Phosphorylation assay (spectrophotometric coupled-enzyme), D. melanogaster dNK; format: biochemical; conditions: substrate at 100 μM, 37° C., 1 mM ATP, triplicate
T1 sequence (Q9XZT6 1-250): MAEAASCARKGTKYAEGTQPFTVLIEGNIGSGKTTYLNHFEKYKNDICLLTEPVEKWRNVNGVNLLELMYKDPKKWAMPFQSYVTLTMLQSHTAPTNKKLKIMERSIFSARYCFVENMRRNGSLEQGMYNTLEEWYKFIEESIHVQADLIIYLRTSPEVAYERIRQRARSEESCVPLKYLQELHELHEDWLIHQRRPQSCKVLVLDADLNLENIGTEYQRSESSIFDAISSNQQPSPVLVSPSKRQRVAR
Method: Compounds of the invention were also tested in a phosphorylation assay using three deoxynucleoside kinases. […] The compounds were at substrate concentration of 100 μM.
Kinetic assay. […] Briefly, the individual nucleosides at 100 μM were prepared in reaction buffer containing 50 mM Tris-HCl (pH 7.5), 0.1 M KCl, 5 mM MgCl2, 1 mM DTT, 1 mM ATP, 0.21 mM phosphoenolpyruvate, 0.18 mM NADH, and 2 units/ml pyruvate kinase and 2 units/ml lactate dehydrogenase (Roche Biochemicals, Indianapolis, Ind.). Assays were performed at 37° C. by measuring the absorbance change at 340 nm. The enzyme amount was adjusted to limit NADH turnover to 10% over the time of the experiment. All experiments were performed in triplicate.

in vitro [6] = conditions: human, MOLT-4 cells
[7] = biological target: Thermotoga maritima thymidine kinase (Thermotoga maritima, UniProt Q9WYN2); test: Phosphorylation assay (spectrophotometric coupled-enzyme), T. maritima TK; format: biochemical; conditions: substrate at 100 μM, 37° C., 1 mM ATP, triplicate
Sequence of Thermotoga maritima thymidine kinase (Q9WYN2 whole entry): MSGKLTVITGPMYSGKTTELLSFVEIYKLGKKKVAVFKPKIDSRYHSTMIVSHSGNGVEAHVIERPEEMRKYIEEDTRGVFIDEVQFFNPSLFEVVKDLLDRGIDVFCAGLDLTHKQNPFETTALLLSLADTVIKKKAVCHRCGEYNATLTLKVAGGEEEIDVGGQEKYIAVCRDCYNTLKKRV
Method: Compounds of the invention were also tested in a phosphorylation assay using three deoxynucleoside kinases. The kinases include human dCK, which is responsible for the activation of numerous nucleoside analog prodrugs; Drosophila melanogaster dNK, which is the fastest known kinases with the broadest substrate specificity profile; and Thermotoga maritima thymidine kinase, which is a good surrogate for human thymidine kinase 1, a member of the distinct type II kinase subfamily. The compounds were at substrate concentration of 100 μM.
Kinetic assay. Substrate phosphorylation was determined using a spectrophotometric coupled-enzyme assay (Munch-Petersen et al. (2000) J. Biol. Chem. vol. 275p. 66′73-66′79; Schelling et al. (2001) Anal. Biochem vol. 295 p. 82-8′7). Briefly, the individual nucleosides at 100 μM were prepared in reaction buffer containing 50 mM Tris-HCl (pH 7.5), 0.1 M KCl, 5 mM MgCl2, 1 mM DTT, 1 mM ATP, 0.21 mM phosphoenolpyruvate, 0.18 mM NADH, and 2 units/ml pyruvate kinase and 2 units/ml lactate dehydrogenase (Roche Biochemicals, Indianapolis, Ind.). Assays were performed at 37° C. by measuring the absorbance change at 340 nm. The enzyme amount was adjusted to limit NADH turnover to 10% over the time of the experiment. All experiments were performed in triplicate.

Panc 02.03 = test: MTT cell proliferation assay, Panc 02.03; format: cell-based; conditions: Homo sapiens, concentration reducing cell growth by 50% after 72 hours, 1% DMSO
Method: as §6, §2, §7, §5

[8] = MTT cell proliferation assay, Panc 02.03; format: cell-based; conditions: human, Panc 02.03 cells, concentration causing 50% cell death of initial cell count over 24 hours, 1% DMSO
Method: as §6, §2, §7, §5

Row | Structure (SMILES) | CC50 at 24 h (in vitro [1]) [µM] | CC50 at 24 h [2] [µM] | EC50 (ZR-75-1) [µM] | CC50 at 24 h (in vitro [3]) [µM] | CC50 at 24 h [4] [µM] | EC50 (PFSK-1) [µM] | D. melanogaster dNK substrate phosphorylation [5] | CC50 at 24 h (in vitro [6]) [µM] | T. maritima TK substrate phosphorylation [7] | EC50 (Panc 02.03) [µM] | CC50 at 24 h [8] [µM] | D. melanogaster dNK substrate phosphorylation ([5]; listed as LCB-1015-1) | T. maritima TK substrate phosphorylation ([7]; listed as LCB-1015-1) | D. melanogaster dNK substrate phosphorylation ([5]; listed as LCB-1022-1) | T. maritima TK substrate phosphorylation ([7]; listed as LCB-1022-1) | D. melanogaster dNK substrate phosphorylation ([5]; listed as LCB-1010-1) | T. maritima TK substrate phosphorylation ([7]; listed as LCB-1010-1) | D. melanogaster dNK substrate phosphorylation ([5]; listed as LCB-1009-1) | T. maritima TK substrate phosphorylation ([7]; listed as LCB-1009-1)
1 | CCOC(=O)[C@@H]1O[C@H](n2ccc(=O)[nH]c2=O)CC1(C)C(=O)OCC (stereo partly drawn) [LCB-1025, (2R,5S)-diethyl 5-(2,4-dioxo-3,4-dihydropyrimidin-1(2H)-yl)-3-methyltetrahydrofuran-2,3-dicarboxylate] | > 460 | > 460 | > 460 | > 460 | > 460 | > 460 | <0.1 10^6 μmol/min mg | > 460 | <1 10^−3 μmol/min mg |  |  |  |  |  |  |  |  |  | 
2 | COC(=O)C1(C)C[C@H](n2cc(F)c(=O)[nH]c2=O)O[C@@H]1CO (mixture of isomers) [LCB-1015, 5-(5-Fluoro-2,4-dioxo-3,4-dihydro-2H-pyrimidin-1-yl)-2-hydroxymethyl-3-methyl-tetrahydro-furan-3-carboxylic acid methyl ester] | > 500 | > 500 | 420 | > 500 | > 500 | 380 |  |  |  | > 500 | > 500 | <0.1 10^6 μmol/min mg | <1 10^−3 μmol/min mg |  |  |  |  |  | 
3 | COC(=O)C1(C)C[C@H](n2cc(F)c(=O)[nH]c2=O)O[C@@H]1CO (mixture of isomers) [LCB-1022, 5-(5-Fluoro-2,4-dioxo-3,4-dihydro-2H-pyrimidin-1-yl)-2-hydroxymethyl-3-methyl-tetrahydro-furan-3-carboxylic acid methyl ester] |  |  |  |  |  |  |  | > 500 |  |  |  |  |  | 1.88 10^6 μmol/min mg | 3 10^−3 μmol/min mg |  |  |  | 
4 | Cc1cc(=O)[nH]c(=O)n1[C@H]1CC2(C)C(=O)OC[C@H]2O1 (single isomer, unassigned) [LCB-1020, 6-Methyl-1-(3a-methyl-4-oxo-hexahydro-furo[3,4-b]furan-2-yl)-1H-pyrimidine-2,4-dione] | > 500 | > 500 | > 500 | > 500 | > 500 | > 500 | <0.1 10^6 μmol/min mg | > 500 | <1 10^−3 μmol/min mg |  |  |  |  |  |  |  |  |  | 
5 | CCOC(=O)[C@@H]1O[C@H](n2cc(C)c(=O)[nH]c2=O)CC1(C)C(=O)OCC (stereo partly drawn) [LCB-1019, (2R,5S)-diethyl 3-methyl-5-(5-methyl-2,4-dioxo-3,4-dihydropyrimidin-1(2H)-yl)tetrahydrofuran-2,3-dicarboxylate] | > 460 | > 460 | > 460 | > 460 | > 460 | > 460 | <0.1 10^6 μmol/min mg | > 460 | 6.1 10^−3 μmol/min mg |  |  |  |  |  |  |  |  |  | 
6 | CCOC(=O)[C@@H]1O[C@H](n2cc(F)c(=O)[nH]c2=O)CC1(C)C(=O)OCC (stereo in doubt) [LCB-1024, (2R,5S)-diethyl5-(5-fluoro-2,4-dioxo-3,4-dihydropyrimidin-1(2H)-yl)-3-methyltetrahydrofuran-2,3-dicarboxylate] | > 460 | > 460 | > 460 | > 460 | > 460 | 190 | <0.1 10^6 μmol/min mg | > 460 | 4.2 10^−3 μmol/min mg |  |  |  |  |  |  |  |  |  | 
7 | COC(=O)C1(C)CC(n2cc(C)c(=O)[nH]c2=O)OC1CO (racemic) [LCB-1010, (±) methyl 2-(hydroxymethyl)-3-methyl-5-(5-methyl-2,4-dioxo-3,4-dihydropyrimidin-1(2H)-yl)tetrahydrofuran-3-carboxylate] | > 500 | > 500 | 180 | > 500 | > 500 | > 500 |  |  |  | > 500 | > 500 |  |  |  |  | 2.84 10^6 μmol/min mg | 6 10^−3 μmol/min mg |  | 
8 | Cc1cc(=O)[nH]c(=O)n1[C@H]1CC(C)(CO)[C@@H](CO)O1 (mixture of isomers) [LCB-1021, 1-(4,5-Bis-hydroxymethyl-4-methyl-tetrahydro-furan-2-yl)-6-methyl-1H-pyrimidine-2,4-dione] | > 500 | > 500 | > 500 | > 500 | > 500 | > 500 | <0.1 10^6 μmol/min mg | > 500 | 2.2 10^−3 μmol/min mg |  |  |  |  |  |  |  |  |  | 
9 | COC(=O)C1(C)C[C@H](n2cc(C)c(=O)[nH]c2=O)O[C@@H]1CO (mixture of isomers) [LCB-1009, (±) methyl 2-(hydroxymethyl)-3-methyl-5-(5-methyl-2,4-dioxo-3,4-dihydropyrimidin-1(2H)-yl)tetrahydrofuran-3-carboxylate] | > 500 | > 500 | > 500 | > 500 | > 500 | > 500 |  |  |  | > 500 | > 500 |  |  |  |  |  |  | 3.49 10^6 μmol/min mg | 11.9 10^−3 μmol/min mg
